In patent publication US5430154A, “2-(4-piperidinyl)-1H-pyrido[4,3-b]-indol-1-ones and related compounds” (Hoechst-Roussel Pharmaceuticals Inc., priority 1993, dated 1995):
Read-outs that look alike come from different tables or passages of the source.

How the values were obtained:
[1] = tested on: apomorphine-induced stereotypy; experiment: antagonism of apomorphine-induced stereotypy; format: in vivo, male Wistar rats; details: apomorphine 1.5 mg/kg s.c., rats
Experimental: Antagonism of apomorphine-induced stereotypy is a property of many antipsychotics. […] Antagonism of apomorphine-induced stereotypy of the present 2-(4-piperidinyl)-1H-pyrido[4,3-b]indol-1-ones is determined by methods similar to those described by N. E. Anden, et al., J. Pharma.
Drugs are prepared using distilled water and, if insoluble, a suitable surfactant is added. The route of administration may be varied and the dosage volume is 10 ml/kg. For a primary screen, a group size of six is used. Drug is administered one hour prior to scoring and the animals are placed in individual clear plastic cages (24×14×13 cm). The control group receives vehicle. Apomorphine hydrochloride solution is prepared at a concentration of 1.5 mg/10 ml in a 0.03% ascorbic acid stock solution (30 mg of ascorbic acid in 100 ml of 1% saline) to increase the stability of the apomorphine hydrochloride while in solution. […] Fifty minutes after drug dosing, stereotypic behavior is noted. Stereotypic activity is defined as sniffing, licking or chewing behavior that occurs in a repetitive manner and is rated as follows: Constant sniffing, licking or chewing without interruption; the animal is considered protected if this behavior is interrupted.
The percent effectiveness of a drug is determined by the number of animals protected in each group.
A dose-response is run in the same manner as a primary screen except that a group size of 10 is used and the animals are dosed in a randomized manner. One group receives vehicle. ED50 for stereotypy are calculated by means of probit analysis.

[2] = tested on: apomorphine-induced climbing; experiment: climbing mice assay (antagonism of apomorphine-induced climbing; antipsychotic activity); format: in vivo, CK-1 male mice; details: Mus musculus, ip, read-out: Antipsychotic Activity ED50
Experimental: The subject CK-1 male mice (23-27 grams) are group-housed under standard laboratory conditions. The mice are individually placed in wire mesh stick cages (4"×4" by 10") and are allowed one hour for adaptation and exploration of the new environment. […] For evaluation of climbing, 3 readings are taken at 10, 20 and 30 minutes after apomorphine administration according to the following scale: Mice consistently climbing before the injection of apormorphine are discarded. With full-developed apomorphine climbing, the animals are hanging onto the cage wails, rather motionless, over longer periods of time. By contrast, climbs due to mere motor stimulation usually only last a few seconds. The climbing scores are individually totaled (maximal score; 6 per mouse over 3 readings) and the total score of the control group (vehicle intraperitioneally-apomorphine subcutaneously) is set to 100%.

[3] = 30 min before apomorphine 1.5 mg/kg s.c., mice, linear regression

Row | Structure (SMILES) | % Inhibition of Apomorphine-Induced Stereotypy ([1]; dose 0.2 mg/kg ip) [%] | ED50 [2] [mg/kg] | % Inhibition of Apomorphine-Induced Stereotypy ([1]; dose 24 mg/kg ip) [%] | ED50 [2, 3] [mg/kg] | % Inhibition of Apomorphine-Induced Stereotypy ([1]; dose 38 mg/kg ip) [%]
1 | O=C(CCCN1CCC(O)(c2ccc(Cl)cc2)CC1)c1ccc(F)cc1 [haloperidol] | 50 | 0.14 | – | – | –
2 | Cl.Cn1c2c(c3ccccc31)C(=O)N(C1CCN(Cc3ccccc3)CC1)CC2 [5-Methyl-2-[1-(phenylmethyl)-4-piperidinyl]-2,3,4,5-tetrahydro-1H-pyrido[4,3-b]-indole-1-one hydrochloride] | – | – | 50 | 4.6 | –
3 | CSc1ccc2c(c1)N(CCC1CCCCN1C)c1ccccc1S2 (stereo not drawn) [thioridazine] | – | – | – | 3.6 | 50
